{"source": "patent US9987253B2", "about": "“Cannabinoid receptor antagonists/inverse agonists useful for treating metabolic disorders, including obesity and diabetes” (Jenrin Discovery, priority 2012, dated 2018)", "origin": "cited, not measured here", "conditions": "type 2 diabetes patients not treated with other anti-diabetic medications, six months, baseline 7.9", "data": [{"compound": "Cc1c(C(=O)NN2CCCCC2)nn(-c2ccc(Cl)cc2Cl)c1-c1ccc(Cl)cc1", "note": "[rimonabant]", "values": [{"measurement": "HbA1c levels lowered", "value": 0.8, "unit": "%"}]}]}
